Measured values reported in patent publication US20090142753A1, “Compositions and methods for detecting compounds to treat a neurological disorder” (Caritas St. Elizeth Medical Center of Boston, Inc., priority 2005, published 2009).

Key:
DJ-1 protein [1] = experiment: Western blot of endogenous DJ-1 protein in SH-SY5Y cells; assay type: cell-based, human; settings: for Total endogenous DJ-1 protein levels: SH-SY5Y cells stably expressing −1000DJ-Luc, 24 hours, Western blot (FIG. 4); for DJ-1 protein levels: SH-SY5Y cells, TSA 0, 50, 100 ng/ml, sodium butyrate 0, 2.5, 5, 10 mM (FIG. 6C)
Procedure: SHSY5Y cells stably expressing −1000DJ-Luc were treated with TSA or sodium butyrate for 24 hours. Total proteins were then extracted and analyzed by SDS-PAGE. After transfer, the membrane was first probed with a mouse monoclonal anti-DJ-1 antibody (1:1000) to reveal DJ-1 expression (Top panel). The membrane was then stripped and re-probed with a goat polyclonal anti-actin (1:1000). Therefore, and without wishing to be bound to theory, it is believed that by activating an anti-oxidative and neuroprotective protein DJ-1, HDAC inhibitors may prevent neuronal cell death in Parkinson disease or other neurodegenerative diseases.
SHSY5Y cells stably expressing −1000DJ-Luc were treated with TSA or sodium butyrate for 24 hours. Total proteins were extracted and analyzed by SDS-PAGE. After transfer, the membrane was first probed with a mouse monoclonal anti-DJ-1 antibody (1:1000) to reveal DJ-1 expression (Top panel). The membrane was then striped and re-probed with a goat polyclonal anti-actin (1:1000).
(§1) SH-SY5Y cells (FIG. 6C), human primary neuronal cultures containing cortical neurons and glia (FIG. 6D), or mouse embryonic stem cells (FIG. 6D) were treated with increasing doses of TSA (0, 50, or 100 ng/ml) and sodium butyrate (0, 2.5, 5, or 10 mM). The cells were then lysed. The protein concentration of each sample was determined using a Protein DC assay (Bio-Rad). Equal amount of proteins (30-40 μg) were resolved by 4-20% Tris-glycine SDS-PAGE in each experiment. Proteins were transferred onto nitrocellulose membranes, and probed with antibodies against DJ-1 (Stressgen) or β-actin (Santa Cruz). DJ-1 protein was then visualized using chemiluminescent detection, ECL WESTERN BLOTTING DETECTION SYSTEM (Amersham, Piscataway, N.J.), according to the manufacturer's instructions.
Human SH-SY5Y cells, a primary neuronal culture containing dopaminergic neurons and glia, or mouse embryonic stem cells were treated with selected HDAC inhibitors for 24 hours. Cells were then lysed in RIPA-DOC buffer (50 mM Tris, pH 7.2; 150 mM NaCl; 1% Triton-X100, 1% deoxycholate and 0.1% SDS) with 1× fresh protease inhibitor cocktail. For analysis of DJ-1 protein levels in mouse brains, C57BL6 mice were injected intraperitoneally with sodium butyrate (1200 mg/kg) or vehicle (PBS) daily for 14 days. Mice were euthanized and the cortical and midbrain tissues were collected, and snap frozen in liquid nitrogen. Tissues were disrupted in RIPA-DOC buffer with 1× protease inhibitor using Dounce homogenizers. Protein concentration of each sample was determined using Protein DC assay (Bio-Rad). Equal amounts of proteins (30-40 μg) were resolved by 4-20% Tris-glycine SDS-PAGE in each experiment. […]

DJ-1 protein [2] = experiment: Western blot of DJ-1 protein in human primary neuronal cultures; assay type: cell-based; settings: human primary neuronal cultures containing cortical neurons and glia, increasing doses (FIG. 6D)
Procedure: as §1
(§2) Human SH-SY5Y cells, a primary neuronal culture containing dopaminergic neurons and glia, or mouse embryonic stem cells were treated with selected HDAC inhibitors for 24 hours. Cells were then lysed in RIPA-DOC buffer (50 mM Tris, pH 7.2; 150 mM NaCl; 1% Triton-X100, 1% deoxycholate and 0.1% SDS) with 1× fresh protease inhibitor cocktail. For analysis of DJ-1 protein levels in mouse brains, C57BL6 mice were injected intraperitoneally with sodium butyrate (1200 mg/kg) or vehicle (PBS) daily for 14 days. […] Protein concentration of each sample was determined using Protein DC assay (Bio-Rad). […]

human DJ-1 promoter [3] = experiment: DJ-1 promoter luciferase reporter assay in SH-SY5Y cells stably expressing −1000DJ-Luc; assay type: cell-based; settings: 24 hours; for DJ-1 promoter-driven luciferase activity normalized to β-galactosidase activity: SH-SY5Y cells stably expressing −1000DJ-Luc, increasing doses; for Luciferase expression directed by the human DJ-1 promoter, fold change relative to untreated: SH-SY5Y −1000DJ-Luc vs 0DJ-Luc, normalized to total protein content (FIG. 6)
Text: (§3) To develop a cell-based assay system where one can identify agents that transcriptionally activate DJ-1, a plasmid vector (−1000DJ-Luc) was made that expressed a luciferase reporter gene directed by the human DJ-1 promoter containing 1000 base pairs upstream and 65 base pairs downstream sequences (−1000 to +65) of the transcription initiation site (FIG. 1). A19 base pair sequence containing +46 to +65 of the DJ-1 gene was fused to the luciferase gene to generate the control plasmid (0DJLuc). A neomycin resistance gene was inserted into the vectors as a selection marker. Next, human dopaminergic SH-SY5Y neuroblastoma cells were transfected with either −1000DJLuc or 0DJLuc selected for stably transfected clones. A plasmid encoding β-galactosidase gene was co-transfected to serve as an internal control for luciferase expression.
To confirm the stable expression of the reporter genes and to evaluate these cells as devices for drug discovery, stably transfected SH-SY5Y cells were treated with increasing doses of H2O2. This agent has been reported to upregulate DJ-1. See for example Reference 21. Twenty-four hours after treatment, cells were harvested to analyze luciferase and β-galactosidase activities. Toxicity induced by the higher dose H2O2 was corrected by reduced β-galactosidase activities. […] SH-SY5Y cells stably expressing −1000DJ-Luc and a plasmid encoding CMV-β-galactosidase were treated with the indicated amount of H2O2 for 24 hours. Luciferase and β-galactosidase activities were then determined. Because cellular toxicity increases with increasing H2O2 dosages, luciferase activity was normalized to β-galactosidase activity, with the value of untreated sample designated as 100. The values shown represent the average of 2 experiments carried out in triplicate. (P<0.05 by Anova). The Luciferase activity in control cell lines expressing 0DJ-Luc was not affected by H2O2. To further validate the cells as tools for compound screening, a rational approach to selecting candidate compounds that can transactivate DJ-1 gene based on the analysis of the human DJ-1 promoter was taken.
SH-SY5Y cells stably expressing −1000DJ-Luc were treated with increasing doses of TSA (FIG. 3A) or sodium butyrate (FIG. 3B) for 24 hours. Results were analyzed as described in FIG. 2. DJ-1 promoter-driven luciferase activity was then assayed.
A. Plasmids and Chemicals. DJ-1 promoter sequences from −1000 to +65 relative to the transcriptional initiation site was amplified from pDJ-1(1)luc by PCR with Xho I and Hind III sites using the following primers: DJ-1 F, 5′ […] (SEQ ID NO:); DJ-1 R, 5′ […] (SEQ ID NO:). The PCR product was then inserted into pGL3basic vector (Promega), between Xho I and Hind III sites to generate 1000DJ-Luc vector. For 0DJ-Luc, the sequences from +46 to +65 relative to the transcriptional initiation site were inserted between XhoI and Hind III sites instead. To facilitate selection, a neomycin resistant gene directed by the SV40 promoter with BamHI and Xho I linker was inserted between the BamHI and SalI sites of pGL3 basic, with the original SalI site abolished after ligation. pON260 encoding β-galactosidase gene was described previously. H2O2, Trichostatin A (TSA), and sodium butyrate were obtained from Sigma.
B. Cells and Transfection. The human neuroblastoma cell line SH-SY5Y was plated in 6 well dish at 70% confluency and co-transfected with 150 ng of pON260 and 25 fmol of −1000DJ-Luc or 0DJ-Luc per well with Transfectin reagent (Bio-Rad). 24 hours after transfection, cells were re-plated in 10 cm dishes and cultured in medium with 800 μg/ml of Geneticin (G418, Invitrogen). Three days later, cells were grown in medium containing 400 μg/ml of Geneticin. Surviving clones were cultured, and expanded, and subjected to analysis.
C. Luciferase and β-galactosidase Assays. Cells were treated with the indicated doses of H2O2, TSA or sodium butyrate for 24 hours before being lysed in reporter lysis buffer (Promega). […]

DJ-1 mRNA = DJ-1 mRNA by quantitative real-time PCR in SH-SY5Y cells; assay type: cell-based, human; settings: 5 mM, 1-12 hours after treatment
Procedure: SH-SY5Y cells were treated with 5 mM of sodium butyrate. Cells were then harvested for mRNA one, two, four, eight, and twelve hours after treatment. DJ-1 mRNA levels were quantitated using real-time PCR. DJ-1 mRNA levels were normalized to internal control β-actin mRNA levels.
Total RNA was extracted from the cells treated with sodium butyrate at various time points using Trizol reagent (Invitrogen). The total RNA was then purified with the RNAeasy kit (Qiagen). The quality of the RNA was confirmed using agarose (1%) gel electrophoresis. RNA (1 ng) from each sample was then amplified using Roche LightCycler and Qiagen QuantiTect™ SYBR Green RT-PCR kit according to the manufacturer's instructions. This protocol included: reverse transcription at 50° for 20 minutes, initial activation of Hotstar Taq polymerase at 95° C. for 15 minutes, then 40 cycles of 3-step cycling, including denaturation at 94° C. for 15 seconds; annealing at 58° C. for 20 seconds; extension at 72° C. for 20 sec). A fluorescence detection step was carried out at the end of each cycle. Melting curve analysis (0.1° C. per sec ramping rate, 60-95° C.) was performed with a continuous fluorescence measurement following the 40th cycle. β-actin mRNA was amplified in parallel as an internal control.

DJ-1 protein [4] = experiment: DJ-1 protein levels in mouse brain in vivo (immunoblot); settings: C57BL6 mice, 1200 mg/kg intraperitoneally daily for fourteen days, cortical and midbrain tissues
Procedure: For analysis of DJ-1 protein levels in mouse brains, C57BL6 mice were injected intraperitoneally with vehicle (PBS) or sodium butyrate (1200 mg/kg) daily for fourteen days. Mice were euthanized and the cortical and midbrain tissues were collected, and snap frozen in liquid nitrogen. Tissues were disrupted in RIPA-DOC buffer with 1× protease inhibitor using a Dounce homogenizer. The protein concentration of each sample was determined using a Protein DC assay (Bio-Rad). Equal amounts of proteins (30-40 μg) were resolved by 4-20% Tris-glycine SDS-PAGE in each experiment. Proteins were transferred onto nitrocellulose membranes, and probed with antibodies against DJ-1 (Stressgen) or β-actin (Santa Cruz).
as §2

DJ-1 protein [5] = experiment: Western blot of DJ-1 protein in mouse embryonic stem cells; assay type: cell-based; settings: increasing doses (FIG. 6D)
Procedure: as §1, §2

human DJ-1 promoter [6] = experiment: DJ-1 luciferase assay in 96-well high throughput format; assay type: cell-based; settings: 1000DJ-Luc SH-SY5Y cells, 96-well format, 5 μM, 24 hours, N=12
Procedure: FIG. 8 is a graph showing the results of a DJ-1 luciferase assay configured as a high throughput screen. Equal numbers of SH-SY5Y cells stably expressing the 1000DJ-Luc construct were plated in replicate (N=12) with 5 μM pergolide, bromocriptine or SAHA for 24 hours and then assayed for luciferase activity. The assay produced a Z′ value of 0.790 using SAHA as the positive and bromocriptine as the negative control.
The assay described above was carried out in a 96-well format. Twelve replicate samples of 1000DJ-Luc cells were each treated with pergolide or bromocriptine, which served as negative controls, or with SAHA, a compound known to increase DJ-1 expression. 5 μM of each compound was added to the cells in a 30 μl volume. Cells were lysed in 100 μl/well of passive lysis buffer, and 20 μl aliquots of the cell lysates were then used for a luciferase assay. Bromocriptine and pergolide are dopamine receptor agonists used for the treatment of motor symptoms in Parkinson's disease. […] In fact, levels of luciferase activity observed with these compounds were very similar to levels present in untreated control cells. […] A Z′ value was calculated using bromocriptine as the negative control. […] See “A Simple Statistical Parameter for Use in Evaluation and Validation of High Throughput Screening Assays” Zhang J H, Chung T D, Oldenburg K R, J Biomol Screen. 1999; 4(2):67-73.

[7] = test system: 0DJ-Luc control plasmid (+46 to +65 of the DJ-1 gene); experiment: Luciferase activity in control cell lines expressing 0DJ-Luc; assay type: cell-based, human; settings: SH-SY5Y 0DJ-Luc cells, 24 hours
Text: as §3
To confirm the stable expression of the reporter genes and to evaluate these cells as devices for drug discovery, stably transfected SH-SY5Y cells were treated with increasing doses of H2O2. This agent has been reported to upregulate DJ-1. See for example Reference 21. Twenty-four hours after treatment, cells were harvested to analyze luciferase and β-galactosidase activities. […] Luciferase and β-galactosidase activities were then determined. […]
C. […] Luciferase and β-galactosidase activities were determined using assay kits following manufacturer's protocol (Promega).

SMILES | Total endogenous DJ-1 protein levels (DJ-1 protein [1]) | DJ-1 protein levels (DJ-1 protein [1]) | DJ-1 protein levels (DJ-1 protein [2]) | DJ-1 promoter-driven luciferase activity normalized to β-galactosidase activity (human DJ-1 promoter [3]) | Luciferase expression directed by the human DJ-1 promoter, fold change relative to untreated (human DJ-1 promoter [3]) | DJ-1 mRNA levels normalized to β-actin mRNA (DJ-1 mRNA) | DJ-1 protein levels in mouse brain (DJ-1 protein [4]) | DJ-1 protein levels (DJ-1 protein [5]) | Luciferase activity (human DJ-1 promoter [6]) | Luciferase activity in control cell lines expressing 0DJ-Luc [7]
CCCC(=O)[O-].[Na+] [sodium butyrate] | increased markedly | increased DJ-1 protein levels in a dose dependent fashion | increased DJ-1 protein levels in a dose dependent fashion | significantly activated the DJ-1 promoter | specifically activate luciferase expression | transient increase in DJ-1 mRNA levels | increased DJ-1 protein levels in mouse brain in vivo | increased DJ-1 protein levels in a dose dependent fashion | – | –
CCCN1C[C@H](CSC)C[C@@H]2c3cccc4[nH]cc(c34)C[C@H]21 [pergolide] | – | – | – | – | – | – | – | – | little luciferase activity | –
CC(/C=C/C(=O)NO)=C\[C@@H](C)C(=O)c1ccc(N(C)C)cc1 [TSA, Trichostatin A] | increased markedly | increased DJ-1 protein levels in a dose dependent fashion | increased DJ-1 protein levels in a dose dependent fashion | significantly activated the DJ-1 promoter | specifically activate luciferase expression | – | – | increased DJ-1 protein levels in a dose dependent fashion | – | –
OO [H2O2] | – | – | – | activated the human DJ-1 promoter in a dose dependent manner | – | – | – | – | – | not affected
O=C(CCCCCCC(=O)Nc1ccccc1)NO [SAHA, suberoylanilide hydroxamic acid] | – | – | – | – | specifically activate luciferase expression | – | – | – | substantial levels of luciferase activity | –
